Among the data in article PMC8286840, “Identifying SARS-CoV-2 antiviral compounds by screening for small molecule inhibitors of Nsp3 papain-like protease” (Biochemical Journal, 2021) are remaining activity values, retold here.

Where a name gives a salt, the structure may show the parent alone. Read-outs that look alike come from different tables or passages of the source.

The target of test [1] is T1, SARS-CoV-2 PLpro (nsp3 1564–1878) (Severe acute respiratory syndrome coronavirus 2, UniProt P0DTD1). Description: biochemical. Further details: FRET-quenched peptide (Pro3) cleavage by PLpro, 10 min pre-incubation, slope over 20 min, normalised to no-compound control. The note with it: read-out: % of control remaining.
For test [2], the target named is T1, SARS-CoV-2 PLpro (nsp3 1564–1878). The test can be described thus: biochemical. Set-up: FRET-quenched peptide (Pro3) cleavage by PLpro, 10 min pre-incubation, slope over 20 min, normalised to no-compound control. The following applies: read-out: % of control remaining. This is another data set of the same source.

Take `CC(C)C[C@H]1C(=O)N2CCC[C@H]2[C@]2(O)O[C@](NC(=O)[C@@H]3C=C4c5cccc6[nH]c(Br)c(c56)C[C@H]4N(C)C3)(C(C)C)C(=O)N12` [Bromocriptine (mesylate)]: the remaining activity at 3.75 µM in test [1] (Well no.=6891, high concentration screen) was determined as 96.2%. Also, in test [2] (Well no.=6891, low concentration screen), the remaining activity at 1.25 µM was 97.5%.

Consider `CC(C)C[C@H]1C(=O)N2CCC[C@H]2[C@]2(O)O[C@](NC(=O)[C@@H]3C=C4c5cccc6[nH]c(Br)c(c56)C[C@H]4N(C)C3)(C(C)C)C(=O)N12` [Bromocriptine mesylate], for which the remaining activity at 3.75 µM in test [1] (Well no.=1811, high concentration screen) was 91.6%; in test [1] (Well no.=3485, high concentration screen), 101%. The remaining activity at 1.25 µM came out at 92.4% in test [2] (Well no.=1811, low concentration screen) and 104% in test [2] (Well no.=3485, low concentration screen).

With `O=C1O/C(=C/Br)CCC1c1cccc2ccccc12` (stereo not drawn) [Bromoenol lactone], the remaining activity at 3.75 µM in test [1] (Well no.=310, high concentration screen) stood at 96.9%. Moreover, the remaining activity at 1.25 µM in test [2] (Well no.=310, low concentration screen) stood at 93%.

For `CN(C)CCC(c1ccc(Br)cc1)c1ccccn1` (stereo not drawn) [Brompheniramine (maleate)], the remaining activity at 3.75 µM in test [1] (Well no.=7377, high concentration screen) is 105%. Moreover, in test [2] (Well no.=7377, low concentration screen), the remaining activity at 1.25 µM amounted to 102%.

As for `CN(C)CCC(c1ccc(Br)cc1)c1ccccn1` (stereo not drawn) [Brompheniramine], the remaining activity at 3.75 µM in test [1] (Well no.=5292, high concentration screen) came to 96.1%. For the same compound, in test [2] (Well no.=5292, low concentration screen), the remaining activity at 1.25 µM came to 99%.

Regarding `COc1cc2c(cc1OC)[C@@]13CC[N+]4([O-])CC5=CCO[C@H]6CC(=O)N2[C@H]1[C@H]6[C@H]5C[C@@H]34` (stereo partly drawn) [Brucine-N-oxide], the remaining activity at 3.75 µM in test [1] (Well no.=3270, high concentration screen) came out at 102%. Besides, the remaining activity at 1.25 µM in test [2] (Well no.=3270, low concentration screen) is 99.2%.

As to `CCCC1O[C@@H]2C[C@H]3[C@@H]4CCC5=CC(=O)C=C[C@]5(C)[C@H]4[C@@H](O)C[C@]3(C)[C@]2(C(=O)CO)O1` (stereo partly drawn) [Budesonide], the remaining activity at 3.75 µM in test [1] (Well no.=81, high concentration screen) turned out to be 102%; in test [1] (Well no.=6659, high concentration screen), 98.7%. The remaining activity at 1.25 µM in test [2] (Well no.=81, low concentration screen) came out at 105%; in test [2] (Well no.=6659, low concentration screen), 98.6%.

On to `CCCCOc1ccc(CC(=O)NO)cc1` [Bufexamac], for which the remaining activity at 3.75 µM in test [1] (Well no.=5265, high concentration screen) is 99.5%. In addition, the remaining activity at 1.25 µM in test [2] (Well no.=5265, low concentration screen) was 101%.

In the case of `COc1cc(OC)c(C(=O)CCCN2CCCC2)c(OC)c1` [Buflomedil HCl], in test [1] (Well no.=5296, high concentration screen), the remaining activity at 3.75 µM amounted to 97.4%. The remaining activity at 1.25 µM in test [2] (Well no.=5296, low concentration screen) stood at 101%.

Regarding `CCCCNc1cc(C(=O)O)cc(S(N)(=O)=O)c1Oc1ccccc1` [Bumetanide], the remaining activity at 3.75 µM came to 96.8% in test [1] (Well no.=29, high concentration screen) and 99.1% in test [1] (Well no.=1909, high concentration screen). Also, the remaining activity at 1.25 µM in test [2] (Well no.=29, low concentration screen) was 103%; in test [2] (Well no.=1909, low concentration screen) it was 100%.

As for `CCCCN1CCCCC1C(=O)Nc1c(C)cccc1C` (stereo not drawn) [Bupivacaine], in test [1] (Well no.=2052, high concentration screen), the remaining activity at 3.75 µM is 103%. For the same compound, the remaining activity at 1.25 µM in test [2] (Well no.=2052, low concentration screen) came out at 105%.

For `CC(NC(C)(C)C)C(=O)c1cccc(Cl)c1` (stereo not drawn) [Bupropion hydrochloride], the remaining activity at 3.75 µM in test [1] (Well no.=37, high concentration screen) is 100%. In addition, the remaining activity at 1.25 µM in test [2] (Well no.=37, low concentration screen) was found to be 101%.

Regarding `CCNC(=O)[C@@H]1CCCN1C(=O)[C@H](CCCNC(=N)N)NC(=O)[C@H](CC(C)C)NC(=O)[C@@H](COC(C)(C)C)NC(=O)[C@H](Cc1ccc(O)cc1)NC(=O)[C@H](CO)NC(=O)[C@H](Cc1c[nH]c2ccccc12)NC(=O)[C@H](Cc1cnc[nH]1)NC(=O)[C@@H]1CCC(=O)N1` [Buserelin (Acetate)], in test [1] (Well no.=8151, high concentration screen), the remaining activity at 3.75 µM is 104%. The remaining activity at 1.25 µM in test [2] (Well no.=8151, low concentration screen) was determined as 106%.

Regarding `O=C1CC2(CCCC2)CC(=O)N1CCCCN1CCN(c2ncccn2)CC1` [Buspirone (hydrochloride)], the remaining activity at 3.75 µM in test [1] (Well no.=8249, high concentration screen) amounted to 99.1%. Further, in test [2] (Well no.=8249, low concentration screen), the remaining activity at 1.25 µM worked out at 101%.

Consider `O=C1CC2(CCCC2)CC(=O)N1CCCCN1CCN(c2ncccn2)CC1` [Buspirone hydrochloride], for which, in test [1] (Well no.=319, high concentration screen), the remaining activity at 3.75 µM was 99.4%. For the same compound, the remaining activity at 1.25 µM in test [2] (Well no.=319, low concentration screen) is 98.2%.

On to `O=C(/C=C/c1ccc(O)c(O)c1)c1ccc(O)cc1O` [Butein], for which the remaining activity at 3.75 µM in test [1] (Well no.=3272, high concentration screen) came to 97.5%. Also, the remaining activity at 1.25 µM in test [2] (Well no.=3272, low concentration screen) is 96.3%.

For `CN(Cc1ccc(C(C)(C)C)cc1)Cc1cccc2ccccc12` [Butenafine HCl], the remaining activity at 3.75 µM in test [1] (Well no.=5371, high concentration screen) worked out at 97.8%. Moreover, the remaining activity at 1.25 µM in test [2] (Well no.=5371, low concentration screen) was 98.1%.

Consider `CN(Cc1ccc(C(C)(C)C)cc1)Cc1cccc2ccccc12` [Butenafine], for which the remaining activity at 3.75 µM in test [1] (Well no.=1876, high concentration screen) turned out to be 94.3%. In addition, in test [2] (Well no.=1876, low concentration screen), the remaining activity at 1.25 µM is 97.2%.

Regarding `CCCCS(=N)(=O)CCC(N)C(=O)O` (stereo not drawn) [Buthionine sulfoximine], the remaining activity at 3.75 µM in test [1] (Well no.=4086, high concentration screen) came out at 100%. The remaining activity at 1.25 µM in test [2] (Well no.=4086, low concentration screen) came to 101%.

Consider `Clc1ccc(CCC(Cn2ccnc2)Sc2c(Cl)cccc2Cl)cc1` (stereo not drawn) [Butoconazole nitrate], for which the remaining activity at 3.75 µM in test [1] (Well no.=2204, high concentration screen) worked out at 93.9%. For the same compound, the remaining activity at 1.25 µM in test [2] (Well no.=2204, low concentration screen) amounted to 96.3%.

For the compound `CCCC(=O)OCC[N+](C)(C)C` [Butyrylcholine], the remaining activity at 3.75 µM in test [1] (Well no.=1738, high concentration screen) came out at 100%. For the same compound, the remaining activity at 1.25 µM in test [2] (Well no.=1738, low concentration screen) was 103%.

Regarding `CN1C(=O)C(Cc2ccc3ccccc3c2)N=C(c2ccc(O)cc2)c2cc(Cl)ccc21` (stereo not drawn) [Bz 423], in test [1], the remaining activity at 3.75 µM came to 93.6%. In test [2], the remaining activity at 1.25 µM is 96.5%.

`CCCCCCCCCCCCC/C=C/[C@@H](O)[C@H](CO)NC(C)=O` [C2 Ceramide]: the remaining activity at 3.75 µM in test [1] (Well no.=4363, high concentration screen) is 104%. Also, the remaining activity at 1.25 µM in test [2] (Well no.=4363, low concentration screen) stood at 108%.

`CCCCCCCCCCCCCC[C@@H](O)[C@@H](O)[C@@H](CO)NC(C)=O` [C2 Phytoceramide]: in test [1] (Well no.=3531, high concentration screen), the remaining activity at 3.75 µM was found to be 104%. For the same compound, in test [2] (Well no.=3531, low concentration screen), the remaining activity at 1.25 µM is 99.2%.

Regarding `CCCCCCCCCCCCC/C=C/[C@@H](O)[C@H](CO)NC(=O)CCCCC` [C6 Ceramide], the remaining activity at 3.75 µM in test [1] (Well no.=3123, high concentration screen) was determined as 101%. Moreover, the remaining activity at 1.25 µM in test [2] (Well no.=3123, low concentration screen) stood at 100%.

Take `CCCCCCCCCCCCC/C=C/[C@@H](O)[C@H](CO)NC(=O)CCCCCCC` [C8 Ceramide]: the remaining activity at 3.75 µM in test [1] (Well no.=4255, high concentration screen) was determined as 99.1%. For the same compound, the remaining activity at 1.25 µM in test [2] (Well no.=4255, low concentration screen) was determined as 100%.

Take `CCCCCCCCCCCCC/C=C/[C@@H](O)[C@H](CO)NCCCCCCCC` [C8 Ceramine]: the remaining activity at 3.75 µM in test [1] (Well no.=4409, high concentration screen) was found to be 95.2%. The remaining activity at 1.25 µM in test [2] (Well no.=4409, low concentration screen) was 101%.

With `CCCCCCCCCCCCCCC[C@@H](O)[C@H](CO)NC(=O)CCCCCCC` [C8 Dihydroceramide], the remaining activity at 3.75 µM in test [1] (Well no.=4395, high concentration screen) was found to be 99.1%. In addition, in test [2] (Well no.=4395, low concentration screen), the remaining activity at 1.25 µM was 99.8%.

Turning to `CCCCCCCCCCCCC/C=C/[C@@H](O)[C@H](CO)NC(=O)CCCCCCCCCCCCCCC` [C16 Ceramide], in test [1] (Well no.=4397, high concentration screen), the remaining activity at 3.75 µM is 101%. Besides, the remaining activity at 1.25 µM in test [2] (Well no.=4397, low concentration screen) came to 101%.

Regarding `CC1=NN(c2ccc(C(=O)O)cc2)C(=O)/C1=C\c1ccc(-c2cc(C)c(C)cc2[N+](=O)[O-])o1` [C646], the remaining activity at 3.75 µM in test [1] (Well no.=5456, high concentration screen) amounted to 101%. Moreover, the remaining activity at 1.25 µM in test [2] (Well no.=5456, low concentration screen) is 98.3%.
